Measured values published in PMC9266917, “New Peptide Functionalized Nanostructured Lipid Carriers with CNS Drugs and Evaluation Anti-proliferative Activity” (International Journal of Molecular Sciences, 2022).

Legend:
[1] = preliminary solubility studies; drug added with stirring until saturation of the lipid; Compritol 888 ATO (melted, 80 °C), Transcutol HP and Miglyol (room temperature); n = 3
Experimental: Increasing amounts of TCP were successively added, with stirring, until saturation of the lipid was achieved. The saturation point occurred when the excess of solid TCP persisted for more than 8 h. Each determination was carried out in triplicate (n = 3).

SH-SY5Y cell line = assay: Cell morphology visualization by microscope, SH-SY5Y; type: cell-based, human; details: 24 h incubation, 1 µM
Experimental: (§1) After the treatments, cell morphology and growth were assessed by contrast phase microscope Lionheart FX (Biotech, USA) with use of Gen5 software (Biotech, USA) and a Leica DMI 6000B microscope equipped with a Leica DFC350 FX camera and then analyzed with the Leica LAS X imaging software (v3.7.4).

Caco-2 cell line [2] = assay: MTT cell viability assay, Caco-2; type: cell-based; details: Caco-2, 24 h incubation, free peptide or conjugate at 10 µM, n = 3 or 6
Experimental: The MTT assay was conducted to determine metabolic activity of cells and assess cellular viability. Cells were maintained in culture incubated with DMEM further supplemented with 10% of heat-inactivated fetal bovine serum (FBS) and 1% penicillin and streptomycin at 37 °C in a controlled atmosphere of 5% CO2 (according to the ATCC recommendations). Before the experiment, SH-SY5Y cells and Caco-2 cell line were seeded in sterile, flat-bottom 96-well plates at the density of 18,000 cells per well and 6000 cells per well, respectively, and incubated for 24 h. […] Then the cells were incubated for 24 h and both negative and positive control were included with incubation with culture media and sterilized water (5:1) and DMSO 10% to promote the cell lyses, respectively. After incubation, all media was aspirated and replaced with 100 μL of MTT solution (at 0.5 mg/mL). Then, cells were incubated for 3 h in the dark. […] The absorbance was measured at 570 nm in a microplate reader (Synergy HT, Biotech Instruments inc., Winoosk, USA and Tecan Infinite M200, Tecan group Ltd., Männedorf, Switzerland). All experiments were performed in triplicates and the relative cell viability (%) was compared to control cells and calculated using the following equation: Cell viability (% of sample)=Abs sample/Abs control×100

Caco-2 cell line [3] = assay: Cell morphology visualization by microscope, Caco-2; type: cell-based; details: Caco-2, 24 h incubation, 10 µM
Experimental: as §1

Molecule | solubility in lipids [1] | cell viability and morphology by microscope visualization (SH-SY5Y cell line) | decrease of cell viability (Caco-2 cell line [2]) | cell viability and morphology by microscope visualization (Caco-2 cell line [3])
N[C@@H]1C[C@H]1c1ccccc1 (racemic) [TCP, (±)-trans-2-Phenylcyclopropylamine] | maximum solubility level in liquid lipid Transcutol HP | – | – | –
KLALKLALKALKAALKLA-NH2 [MAP, model amphipathic peptide, cell-penetrating peptide] | – | decreased substantial cell viability and showed some morphologic change with loss of normal cellular structure and round aspect | 20% | decrease of cell viability and substantial morphologic changes
